Reference: ChEMBL document CHEMBL4177747, “1,5-Disubstituted 1,2,3-triazole linked disaccharides: Metal-free syntheses and screening of a new class of ribonuclease A inhibitors” (Bioorg Med Chem, 2018)
The source made the active and inactive calls. The calls are words filed in the database; no cut-off is given here.

How the values were obtained:
[1] = organism: Homo sapiens; experiment: Inhibition of RNase A (unknown origin) assessed as reduction in tRNA substrate degradation at 0.6 to 1 mM pretreated for 3 hrs followed by substrate addition measured after 30 mins by ethidium bromide staining based agarose gel electrophoresis
[2] = organism: Homo sapiens; experiment: Inhibition of RNase A (unknown origin) assessed as reduction in tRNA substrate degradation at 0.25 to 0.3 mM pretreated for 3 hrs followed by substrate addition measured after 30 mins by ethidium bromide staining based agarose gel electrophoresis
[3] = organism: Homo sapiens; experiment: Inhibition of RNase A (unknown origin) assessed as reduction in tRNA substrate degradation at 0.1 to 0.2 mM pretreated for 3 hrs followed by substrate addition measured after 30 mins by ethidium bromide staining based agarose gel electrophoresis
[4] = Inhibition of RNase A (unknown origin) using varying levels of 2',3'-cCMP as substrate by Lineweaver-burk plot analysis; set-up: species or system Homo sapiens
[5] = organism: Homo sapiens; experiment: Inhibition of RNase A (unknown origin) assessed as reduction in tRNA substrate degradation at 0.35 to 0.5 mM pretreated for 3 hrs followed by substrate addition measured after 30 mins by ethidium bromide staining based agarose gel electrophoresis
[6] = organism: Homo sapiens; experiment: Inhibition of RNase A (unknown origin) assessed as reduction in tRNA substrate degradation at 0.1 to 0.15 mM pretreated for 3 hrs followed by substrate addition measured after 30 mins by ethidium bromide staining based agarose gel electrophoresis

| SMILES | inhibition [1] | inhibition [2] | inhibition [3] | Ki [4] [µM] | inhibition [5] | inhibition [6] |
| --- | --- | --- | --- | --- | --- | --- |
| CC1(C)O[C@H]2O[C@H](Cn3nncc3[C@H]3O[C@@H]4OC(C)(C)O[C@@H]4[C@H]3OCc3ccccc3)[C@H](O)[C@H]2O1 | Active | Active | Active | 563 | Active | Active |
| Cc1cn([C@@H]2O[C@H](C(=O)N[C@H](CC(=O)O)C(=O)N[C@H]3C[C@H](n4cc(C)c(=O)[nH]c4=O)O[C@@H]3CO)[C@@H](O)[C@H]2O)c(=O)[nH]c1=O |  |  |  | 66 |  |  |
